Results taken from patent publication US7736624B2, “Methods and compositions for diagnostic and therapeutic targeting of COX-2” (priority 2006, dated 2010).
Read-outs that look alike come from different tables or passages of the source.

What was measured:
COX-2 = biological target: T1, COX-2 (Homo sapiens, UniProt P35354); assay: IC50 determinations using purified enzymes (TLC assay), COX-2; type: biochemical; set-up: made in house; host or cells: Sf9 insect cells
T1 sequence (P35354 18-604): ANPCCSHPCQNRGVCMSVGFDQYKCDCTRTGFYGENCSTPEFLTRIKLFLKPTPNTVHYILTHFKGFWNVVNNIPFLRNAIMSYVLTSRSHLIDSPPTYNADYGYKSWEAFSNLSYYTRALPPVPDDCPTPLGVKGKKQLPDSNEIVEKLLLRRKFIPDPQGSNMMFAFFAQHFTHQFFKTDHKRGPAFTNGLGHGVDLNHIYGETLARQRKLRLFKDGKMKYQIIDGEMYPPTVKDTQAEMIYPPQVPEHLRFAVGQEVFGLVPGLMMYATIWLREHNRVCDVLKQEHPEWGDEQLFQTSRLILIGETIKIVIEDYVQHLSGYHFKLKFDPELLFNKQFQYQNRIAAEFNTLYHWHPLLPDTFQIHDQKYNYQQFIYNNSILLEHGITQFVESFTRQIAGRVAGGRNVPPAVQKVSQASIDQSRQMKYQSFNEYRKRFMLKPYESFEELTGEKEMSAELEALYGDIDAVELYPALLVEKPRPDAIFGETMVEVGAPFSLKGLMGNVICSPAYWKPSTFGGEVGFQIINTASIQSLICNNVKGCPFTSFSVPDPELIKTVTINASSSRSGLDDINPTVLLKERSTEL
Excerpt: (§1) Those skilled in the art will appreciate that an evaluation of the selectivity and efficacy of binding of the NSAID derivative to the COX-2 enzyme, e.g., after the derivative is synthesized, can be desirable. […] One example of an in vitro screening method takes advantage of the fact that both human and murine recombinant COX-2 can be expressed and isolated in pure form from an Sf9 cell expression system. […] Alternatively, membrane preparations from outdated human platelets can provide a source of human COX-1. […] The reaction is stopped by the addition of ethanol/methanol/1 M citrate, pH 4.0 (30:4:1). The extracted products are separated by thin layer chromatography (TLC), which allows quantitation of total product formation as well as assessment of product distribution. This assay is useful to define IC50 values for inhibition of either enzyme, and to determine time-dependency of inhibition. It also provides information concerning changes in products formed as a result of inhibition.
(§2) Reactions were terminated by solvent extraction in Et2O/CH3OH/1 M citrate, pH 4.0 (30:4:1). The phases were separated by centrifugation at 2000 g for 5 minutes and the organic phase was spotted on a 20×20 cm TLC plate (Lieselgel 60, EMD Chemicals, Inc., Gibbstown, N.J., United States of America). The plate was developed in EtOAc/CH2Cl2/glacial AcOH (75:25:1) at 4° C. Radiolabeled prostanoid products were quantitatively determined with a radioactivity scanner available from Bioscan, Inc. (Washington, D.C., United States of America). The percentage of total products observed at different concentrations of the presently disclosed compositions was divided by the percentage of products observed for protein samples preincubated for the same amount of time with DMSO.

ovine COX-1 = biological target: T2, ovine COX-1 (Ovis aries, UniProt P05979); assay: IC50 determinations using purified enzymes (TLC assay), COX-1; type: biochemical; settings: assayed against purified enzymes
T2 construct: can be purified from ovine seminal vesicles by standard procedures; from tissue; host or cells: ovine seminal vesicles
T2 sequence (P05979 25-600): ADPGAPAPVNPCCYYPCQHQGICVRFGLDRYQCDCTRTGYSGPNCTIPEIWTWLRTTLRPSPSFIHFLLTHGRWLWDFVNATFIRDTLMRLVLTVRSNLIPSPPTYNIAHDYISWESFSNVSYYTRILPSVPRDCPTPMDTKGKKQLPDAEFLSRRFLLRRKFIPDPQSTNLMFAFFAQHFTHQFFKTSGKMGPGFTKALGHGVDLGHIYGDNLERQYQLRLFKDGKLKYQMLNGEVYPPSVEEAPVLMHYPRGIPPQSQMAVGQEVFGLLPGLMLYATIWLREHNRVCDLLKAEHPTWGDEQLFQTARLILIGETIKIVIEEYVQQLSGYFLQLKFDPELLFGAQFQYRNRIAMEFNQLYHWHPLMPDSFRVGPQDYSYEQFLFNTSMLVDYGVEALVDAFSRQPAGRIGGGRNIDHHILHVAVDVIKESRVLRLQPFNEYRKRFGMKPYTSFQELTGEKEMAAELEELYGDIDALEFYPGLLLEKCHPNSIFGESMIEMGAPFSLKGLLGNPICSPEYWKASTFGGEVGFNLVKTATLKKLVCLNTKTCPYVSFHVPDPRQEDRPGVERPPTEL
Excerpt: as §1, §2

[1] = Table 3, assayed against purified enzymes, read-out: IC50 COX-2
[2] = purified enzyme, read-out: COX-2 IC50
[3] = Table 2, assayed against purified enzymes, read-out: IC50 COX-2

SMILES | IC50 (COX-2; [1]) [µM] | IC50 (ovine COX-1; Table 3) [µM] | further results
COc1ccc2c(c1)c(CC(=O)NCCCNC(=O)c1ccc(C(=O)[O-])c(-c3c4ccc(=[N+](C)C)cc-4oc4cc(N(C)C)ccc34)c1)c(C)n2C(=O)c1ccc(Cl)cc1 [Compound 27aaa] | 3.9 | > 25 | 
COc1ccc2c(c1)c(CC(=O)NCCCNS(=O)(=O)c1ccc(/N=N/c3ccc(N(C)C)cc3)cc1)c(C)n2C(=O)c1ccc(Cl)cc1 [Compound 27bb] | 0.134 | 0.214 | 
COc1ccc2c(c1)c(CC(=O)NCCCN1CCN(CCCNC(=O)c3ccc(C(=O)[O-])c(C4=c5cc6c7c(c5Oc5c4cc4c8c5CCCN8CCC4)CCC[N+]=7CCC6)c3)CC1)c(C)n2C(=O)c1ccc(Cl)cc1 [Compound 27bbb] | > 25 | > 25 | 
COc1ccc2c(c1)c(CC(=O)NCCN1CCN(C(=O)c3ccc(C(=O)[O-])c(C4=c5cc6c7c(c5Oc5c4cc4c8c5CCCN8CCC4)CCC[N+]=7CCC6)c3)CC1)c(C)n2C(=O)c1ccc(Cl)cc1 [Compound 27ccc] | > 25 | > 25 | 
COc1ccc2c(CC(=O)NCCNC(=O)Cc3c(C)n(C(=O)c4ccc(Cl)cc4)c4ccc(OC)cc34)cc(=O)oc2c1 [Compound 27dd] | > 25 | > 25 | 
COc1ccc2c(c1)c(CC(=O)N1CCNCC1)c(C)n2C(=O)c1ccc(Cl)cc1 [Compound 27ddd] | > 25 | 1.8 | 
COc1ccc2c(c1)c(CC(=O)NCCCNC(=O)c1cc3ccccc3oc1=O)c(C)n2C(=O)c1ccc(Cl)cc1 [Compound 27ee] | 0.6 | > 25 | 
CCN(CC)c1ccc2cc(C(=O)NCCCCNC(=O)Cc3c(C)n(C(=O)c4ccc(Cl)cc4)c4ccc(OC)cc34)c(=O)oc2c1 [Compound 27ff] | 0.031 | > 25 | 
COc1ccc2c(c1)c(CC(=O)N1CCN(C(=O)c3ccc(C(=O)[O-])c(C4=c5cc6c7c(c5Oc5c4cc4c8c5CCCN8CCC4)CCC[N+]=7CCC6)c3)CC1)c(C)n2C(=O)c1ccc(Cl)cc1 [Compound 27fff] | > 25 | > 25 | 
CCN(CC)c1ccc2cc(C(=O)NCCCNC(=O)Cc3c(C)n(C(=O)c4ccc(Cl)cc4)c4ccc(OC)cc34)c(=O)oc2c1 [Compound 27gg] | 0.053 | > 25 | 
COc1ccc2c(c1)c(CC(=O)NCCNC(=O)c1ccc(C3=c4cc5c6c(c4Oc4c3cc3c7c4CCCN7CCC3)CCC[N+]=6CCC5)c(C(=O)[O-])c1)c(C)n2C(=O)c1ccc(Cl)cc1 [Compound 27ggg] | 2.8 | 0.5 | 
COc1ccc2c(c1)c(CC(=O)NCCNC(=O)/C=C(C)/C=C/C=C(C)/C=C/C1=C(C)CCCC1(C)C)c(C)n2C(=O)c1ccc(Cl)cc1 [Compound 27h] |  |  | IC50 (COX-2; [2]): 0.107 µM; IC50 (ovine COX-1; Table 1): > 4 µM
COc1ccc2c(c1)c(CC(=O)NCCNC(=O)/C=C/c1ccc(N(C)C)cc1)c(C)n2C(=O)c1ccc(Cl)cc1 [Compound 27hh] | 0.51 | > 25 | 
COc1ccc2c(c1)c(CC(=O)N1CCN(C(=O)c3ccc(C4=c5cc6c7c(c5Oc5c4cc4c8c5CCCN8CCC4)CCC[N+]=7CCC6)c(C(=O)[O-])c3)CC1)c(C)n2C(=O)c1ccc(Cl)cc1 [Compound 27hhh] | 1.3 | 5.8 | 
COc1ccc2c(c1)c(CC(=O)NCCNC(=S)Nc1ccc(-c3c4ccc(=O)cc-4oc4cc(O)ccc34)c(C(=O)O)c1)c(C)n2C(=O)c1ccc(Cl)cc1 [Compound 27jj] | > 25 | 5.35 | 
COc1ccc2c(c1)c(CC(=O)NCCCNC(=S)Nc1ccc(-c3c4ccc(=O)cc-4oc4cc(O)ccc34)c(C(=O)O)c1)c(C)n2C(=O)c1ccc(Cl)cc1 [Compound 27kk] | > 25 | > 25 | 

SMILES | IC50 (COX-2; [1]) [µM] | IC50 (ovine COX-1; Table 3) [µM] | further results
COc1ccc2c(c1)c(CC(=O)NCCCCNC(=S)Nc1ccc(-c3c4ccc(=O)cc-4oc4cc(O)ccc34)c(C(=O)O)c1)c(C)n2C(=O)c1ccc(Cl)cc1 [Compound 27ll] | 3.1 | > 25 | 
CCN(CC)c1ccc2c(-c3ccc(S(=O)(=O)NCCCCNC(=O)Cc4c(C)n(C(=O)c5ccc(Cl)cc5)c5ccc(OC)cc45)cc3S(=O)(=O)[O-])c3ccc(=[N+](CC)CC)cc-3oc2c1 [Compound 27lll] | > 25 | > 25 | 
COc1ccc2c(c1)c(CC(=O)NCCCCNC(=O)c1ccc(C(=O)O)c(-c3c4cc(F)c(=O)cc-4oc4cc(O)c(F)cc34)c1)c(C)n2C(=O)c1ccc(Cl)cc1 [Compound 27mm] | 3.2 | 22.5 | 
CCCCNC(=O)Cc1c(C)n(C(=O)c2ccc(Cl)cc2)c2ccc(OC)cc12 [Compound 27nnn] | > 25 | > 25 | 
COc1ccc2c(c1)c(CC(=O)NCCCCNC(=O)CCCCCNC(=O)c1ccc(-c3c4ccc(=O)cc-4oc4cc(O)ccc34)c(C(=O)O)c1)c(C)n2C(=O)c1ccc(Cl)cc1 [Compound 27oo] | > 25 | > 25 | 
COc1ccc2c(c1)c(CC(=O)NCCCCOC(=O)CCC(=O)O[C@H]1c3cc4c(cc3[C@@H](c3cc(OC)c(OC)c(OC)c3)[C@H]3C(=O)OC[C@@H]31)OCO4)c(C)n2C(=O)c1ccc(Cl)cc1 [Compound 27p] |  |  | IC50 (COX-2; [2]): 0.147 µM; IC50 (ovine COX-1; Table 1): > 4 µM
COc1ccc2c(c1)c(CC(=O)NCCCCNC(=O)c1ccc(-c3c4ccc(=O)cc-4oc4cc(O)ccc34)c(C(=O)O)c1)c(C)n2C(=O)c1ccc(Cl)cc1 [Compound 27pp] | > 25 | > 25 | 
CCN1C(=CC=CC=CC2=[N+](CCCCS(=O)(=O)[O-])c3ccc4ccccc4c3C2(C)C)C(C)(C)c2cc(CC(=O)NCCCCNC(=O)Cc3c(C)n(C(=O)c4ccc(Cl)cc4)c4ccc(OC)cc34)ccc21 [Compound 27qqq] | 0.5 | > 25 | 
COc1ccc2c(c1)c(CC(=O)NCCNC(=O)/C=C(C)/C=C/C=C(C)\C=C\C1=C(C)CCCC1(C)C)c(C)n2C(=O)c1ccc(Cl)cc1 [Compound 27s] |  |  | IC50 (COX-2; [3]): 0.388 µM; IC50 (ovine COX-1; Table 2): > 25 µM
COc1ccc2c(c1)c(CC(=O)N1CCN(C(=O)c3ccc(C(=O)O)c(-c4c5ccc(=O)cc-5oc5cc(O)ccc45)c3)CC1)c(C)n2C(=O)c1ccc(Cl)cc1 [Compound 27tt] | > 25 | > 25 | 
COc1ccc2c(c1)c(CC(=O)Nc1ccc(S(=O)(=O)Nc3cc(OC)nc(OC)n3)cc1)c(C)n2C(=O)c1ccc(Cl)cc1 [Compound 27u] |  |  | IC50 (COX-2; [3]): 0.148 µM
COc1ccc2c(c1)c(CC(=O)OCCN1CCN(CCCN3c4ccccc4Sc4ccc(Cl)cc43)CC1)c(C)n2C(=O)c1ccc(Cl)cc1 [Compound 27v] |  |  | IC50 (COX-2; [3]): 0.387 µM; IC50 (ovine COX-1; Table 2): > 25 µM
COc1ccc2c(c1)c(CC(=O)NCCCCNC(=O)c1ccc(C(=O)[O-])c(-c3c4ccc(=[N+](C)C)cc-4oc4cc(N(C)C)ccc34)c1)c(C)n2C(=O)c1ccc(Cl)cc1 [Compound 27xx] | > 25 | > 25 | 
COc1ccc2c(c1)c(CC(=O)NCCCNC(=O)c1ccc(C(=O)[O-])c(C3=c4cc5c6c(c4Oc4c3cc3c7c4CCCN7CCC3)CCC[N+]=6CCC5)c1)c(C)n2C(=O)c1ccc(Cl)cc1 [Compound 27yy] | > 25 | > 25 | 
Cc1ccc(-c2cc(CCC(=O)O)nn2-c2ccc(S(C)(=O)=O)cc2)cc1 [Compound 29e] |  |  | IC50 (COX-2; [3]): > 25 µM
